These results are taken from PubChem BioAssay (NCI).

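Where inhibition never reached the appropriate level, the endpoint shown equals the highest concentration tested. Otherwise, values were interpolated linearly from a five-concentration, 48-hour dose response in 96-well plates. GI50 is the concentration that inhibits growth by half. Definition used: TGI = concentration required for complete inhibition of growth.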

Some test systems named below: SK-MEL-2 melanoma; MOLT-4 leukemia; UACC-62 melanoma; MDA-MB-231 breast; HCC-2998 colon; TK-10 renal; HCT-116 colon; OVCAR-4 ovarian; HOP-62 NSCLC; OVCAR-8 ovarian.
Holding throughout (assay): inhibition of tumour cell growth, NCI panel, 48 h

As to `CSC(=S)N/N=C(\C)c1ccccn1`, the GI50 with SK-MEL-2 melanoma was 0.329 µM; in the assay with MOLT-4 leukemia it was less than 0.0145 µM; in the assay on UACC-62 melanoma, 0.181 µM; with MDA-MB-231 breast it was 0.113 µM; in the assay on HCC-2998 colon, 0.509 µM; with TK-10 renal, 0.527 µM. For the same molecule, the GI50 is less than 0.01 µM in the assay with HCT-116 colon, less than 0.0169 µM with OVCAR-4 ovarian, 0.366 µM in the assay with HOP-62 NSCLC and 0.203 µM in the assay with OVCAR-8 ovarian. The TGI in the assay with SK-MEL-2 melanoma amounted to 3.75 µM; in the assay on MOLT-4 leukemia, 0.975 µM; in the assay on UACC-62 melanoma it was 0.955 µM; with MDA-MB-231 breast, 8.98 µM; in the assay with HCC-2998 colon, 16.2 µM; with TK-10 renal it was 24.2 µM. For the same molecule, the TGI came to 5.28 µM in the assay on HCT-116 colon, 10.6 µM in the assay with OVCAR-4 ovarian, 5.19 µM in the assay with HOP-62 NSCLC and 13.5 µM in the assay on OVCAR-8 ovarian.

With `O=[N+]([O-])c1ccc2[nH]cc(-c3c4ccccc4cc4[nH]c5ccc([N+](=O)[O-])cc5c34)c2c1`, the GI50 in the assay on SK-MEL-2 melanoma is 2.18 µM; with MOLT-4 leukemia, 2.45 µM; in the assay on UACC-62 melanoma, 1.63 µM; in the assay with MDA-MB-231 breast, 2.27 µM; with HCC-2998 colon, 2.33 µM; in the assay on TK-10 renal, 2.59 µM. Also, the GI50 with HCT-116 colon was 2.16 µM; in the assay with OVCAR-4 ovarian it was 1.57 µM; in the assay on HOP-62 NSCLC, 2.54 µM; in the assay on OVCAR-8 ovarian, 2.59 µM. In addition, the TGI was 5.34 µM with SK-MEL-2 melanoma; 6.55 µM in the assay on MOLT-4 leukemia; 3.47 µM in the assay with UACC-62 melanoma; 5.83 µM with MDA-MB-231 breast; 4.58 µM with HCC-2998 colon; 6.79 µM with TK-10 renal. For the same molecule, the TGI with HCT-116 colon was 5 µM; in the assay on OVCAR-4 ovarian, 3.02 µM; with HOP-62 NSCLC, 7.25 µM; with OVCAR-8 ovarian, 8.17 µM.

Take `COc1cc(/C=C/C(=O)c2ccc(Nc3nc(Nc4ccc(F)cc4)nc(Nc4ccc(F)cc4)n3)cc2)cc(OC)c1OC`: the GI50 with SK-MEL-2 melanoma is 3.99 µM; in the assay on MOLT-4 leukemia it was 1.93 µM; with UACC-62 melanoma, 10.7 µM; in the assay on MDA-MB-231 breast it was 15.8 µM; with HCC-2998 colon, 27.7 µM; in the assay on TK-10 renal, 35.8 µM. Besides, the GI50 in the assay with HCT-116 colon is 2.56 µM; in the assay with OVCAR-4 ovarian, more than 100 µM; in the assay with HOP-62 NSCLC, 5.26 µM; in the assay with OVCAR-8 ovarian it was 1.94 µM. Moreover, the TGI was 33.2 µM in the assay with SK-MEL-2 melanoma; more than 100 µM with MOLT-4 leukemia; 41.4 µM in the assay on UACC-62 melanoma; more than 100 µM in the assay with MDA-MB-231 breast; more than 100 µM with HCC-2998 colon; more than 100 µM in the assay on TK-10 renal. For the same molecule, the TGI in the assay on HCT-116 colon, in the assay with OVCAR-4 ovarian, with HOP-62 NSCLC and in the assay on OVCAR-8 ovarian was more than 100 µM throughout.

Consider `CCOC(=O)C(=Cc1ccccc1Br)C(=O)OCC`, for which the TGI in the assay on SK-MEL-2 melanoma was found to be 5.31 µM; in the assay on MOLT-4 leukemia it was 5.61 µM; in the assay with UACC-62 melanoma, 4.79 µM; with MDA-MB-231 breast it was 36.9 µM; in the assay with HCC-2998 colon, 6.54 µM; in the assay on TK-10 renal it was 8.7 µM. In addition, the TGI with HCT-116 colon was more than 100 µM; in the assay on OVCAR-4 ovarian, 16.5 µM; with HOP-62 NSCLC it was more than 100 µM; in the assay with OVCAR-8 ovarian, 5.6 µM.

On to `O=C(CC1C(=O)Nc2ccccc2S1=O)Nc1cccc(Cl)c1` (centres undefined), for which the TGI is more than 100 µM in the assay with SK-MEL-2 melanoma; more than 67.2 µM in the assay on MOLT-4 leukemia; more than 76.1 µM with UACC-62 melanoma; 34.4 µM in the assay on MDA-MB-231 breast; more than 100 µM with HCC-2998 colon; more than 100 µM in the assay on TK-10 renal. Further, the TGI is more than 67.3 µM in the assay with HCT-116 colon, more than 100 µM with OVCAR-4 ovarian, more than 77.6 µM in the assay with HOP-62 NSCLC and more than 71.9 µM in the assay with OVCAR-8 ovarian.

For `CC(=O)Nc1ccc(C(=O)N[C@@H]2C(=O)N3[C@@H]2SC(C)(C)[C@@H]3C(=O)O)cn1`, the TGI in the assay on SK-MEL-2 melanoma, in the assay with MOLT-4 leukemia, with UACC-62 melanoma, in the assay on MDA-MB-231 breast, with HCC-2998 colon and with TK-10 renal was more than 100 µM in each case. Also, the TGI in the assay on HCT-116 colon, in the assay on OVCAR-4 ovarian, with HOP-62 NSCLC and with OVCAR-8 ovarian was more than 100 µM throughout.

On to `Cc1ccc(Cl)cc1Nc1nc(C(F)(F)F)ccc1C(=O)Oc1ccc(Cl)cc1`, for which the GI50 in the assay with SK-MEL-2 melanoma was 17.7 µM; in the assay with MOLT-4 leukemia, 7.99 µM; in the assay on UACC-62 melanoma, 15.8 µM; with MDA-MB-231 breast, 4.53 µM; in the assay with HCC-2998 colon, 8.86 µM; in the assay with TK-10 renal, 5.57 µM. The GI50 in the assay on HCT-116 colon was 4.45 µM; in the assay on OVCAR-4 ovarian it was 11.1 µM; with HOP-62 NSCLC, 8.88 µM; with OVCAR-8 ovarian, 7.62 µM. In addition, the TGI is more than 100 µM in the assay on SK-MEL-2 melanoma; 24.3 µM with MOLT-4 leukemia; 38.6 µM in the assay with UACC-62 melanoma; 20.6 µM in the assay with MDA-MB-231 breast; 29.4 µM in the assay with HCC-2998 colon; 18.6 µM in the assay with TK-10 renal. In addition, the TGI in the assay with HCT-116 colon is 20 µM; in the assay on OVCAR-4 ovarian, 44.3 µM; in the assay on HOP-62 NSCLC, 23.1 µM; in the assay with OVCAR-8 ovarian, 29 µM.

As for `O=Cc1ccc(C(F)(F)F)cc1.[C-]#[O+].[C-]#[O+].[C-]#[O+].[Cr]`, the GI50 in the assay with SK-MEL-2 melanoma is 23.7 µM; in the assay with MOLT-4 leukemia it was 15.4 µM; in the assay on UACC-62 melanoma, 13.3 µM; in the assay on MDA-MB-231 breast, 25 µM; with HCC-2998 colon, 53.6 µM; in the assay on TK-10 renal it was 25.9 µM. Moreover, the GI50 is 16.7 µM in the assay with HCT-116 colon, 27.1 µM in the assay on OVCAR-4 ovarian, 46.6 µM with HOP-62 NSCLC and 25.3 µM in the assay with OVCAR-8 ovarian. Besides, the TGI with SK-MEL-2 melanoma was more than 100 µM; with MOLT-4 leukemia it was 68 µM; with UACC-62 melanoma, 37 µM; with MDA-MB-231 breast, more than 100 µM; in the assay with HCC-2998 colon it was more than 100 µM; in the assay on TK-10 renal, more than 100 µM. Further, the TGI in the assay with HCT-116 colon is 38.7 µM; in the assay with OVCAR-4 ovarian, more than 100 µM; with HOP-62 NSCLC it was more than 100 µM; with OVCAR-8 ovarian, more than 100 µM.

As for `Cc1nc2cc(O)c(O)cc2cc1Oc1ccc(NC(=O)Nc2ccc(Cl)c(Cl)c2)cc1`, the GI50 with SK-MEL-2 melanoma is 8.83 µM; with MOLT-4 leukemia it was 8.87 µM; with UACC-62 melanoma it was 5.67 µM; in the assay with MDA-MB-231 breast it was 2.49 µM; in the assay with HCC-2998 colon, 6.7 µM; in the assay with TK-10 renal, 14.2 µM. Further, the GI50 with HCT-116 colon is 2.24 µM; with OVCAR-4 ovarian it was 9.73 µM; in the assay on HOP-62 NSCLC it was 8.62 µM; with OVCAR-8 ovarian it was 5.77 µM. Further, the TGI in the assay on SK-MEL-2 melanoma was 21.1 µM; in the assay on MOLT-4 leukemia, more than 32.5 µM; in the assay on UACC-62 melanoma, 11.2 µM; in the assay with MDA-MB-231 breast, more than 32.5 µM; in the assay on HCC-2998 colon it was 14.6 µM; in the assay on TK-10 renal, more than 32.5 µM. In addition, the TGI was 13.6 µM in the assay on HCT-116 colon, more than 32.5 µM in the assay with OVCAR-4 ovarian, more than 32.5 µM in the assay on HOP-62 NSCLC and more than 32.5 µM in the assay with OVCAR-8 ovarian.

Consider `O=C(O)/C(Cl)=C(/Cl)C(=O)Nc1cccc(Cl)c1`, for which the TGI with SK-MEL-2 melanoma was determined as 49.8 µM; in the assay on MOLT-4 leukemia, 8.45 µM; in the assay on UACC-62 melanoma it was 31.7 µM; with MDA-MB-231 breast, 28.1 µM; in the assay on HCC-2998 colon, 37.1 µM; in the assay on TK-10 renal, 33.8 µM. In addition, the TGI is 31.8 µM with HCT-116 colon, 33.6 µM in the assay with OVCAR-4 ovarian, more than 76.3 µM with HOP-62 NSCLC and 38.9 µM in the assay with OVCAR-8 ovarian.

Consider `CCOC1NC(=O)Oc2ccccc21` (centres undefined), for which the TGI in the assay on SK-MEL-2 melanoma, with MOLT-4 leukemia, in the assay with UACC-62 melanoma, in the assay on MDA-MB-231 breast, in the assay with HCC-2998 colon and in the assay on TK-10 renal was more than 100 µM in each case. Further, the TGI in the assay with HCT-116 colon, in the assay with OVCAR-4 ovarian, in the assay with HOP-62 NSCLC and in the assay on OVCAR-8 ovarian was more than 100 µM each time.

`Oc1ccc2ccccc2c1/C=N\Nc1ccccn1`: the TGI in the assay on SK-MEL-2 melanoma was more than 49 µM; with MOLT-4 leukemia it was more than 100 µM; in the assay with UACC-62 melanoma, 13.1 µM; with MDA-MB-231 breast it was more than 43 µM; with HCC-2998 colon, more than 100 µM; in the assay with TK-10 renal, more than 100 µM. The TGI with HCT-116 colon was more than 39.2 µM; in the assay with OVCAR-4 ovarian, more than 100 µM; in the assay with HOP-62 NSCLC it was 17 µM; in the assay with OVCAR-8 ovarian, more than 60.4 µM. Further, the GI50 in the assay on MOLT-4 leukemia is 0.358 µM; with UACC-62 melanoma it was 0.692 µM; with MDA-MB-231 breast it was 0.463 µM; with HCC-2998 colon, 4.13 µM; with TK-10 renal it was 4.85 µM; in the assay with HCT-116 colon, 0.318 µM. Besides, the GI50 in the assay with OVCAR-4 ovarian was 1.24 µM; in the assay on HOP-62 NSCLC, 0.416 µM; with OVCAR-8 ovarian, 0.365 µM.

For `Cc1ccc(/C=C(\C#N)n2nnc3cc(F)c(F)cc32)cc1`, the GI50 is 2.26 µM with SK-MEL-2 melanoma; 2.7 µM with MOLT-4 leukemia; 3.71 µM with UACC-62 melanoma; 3.33 µM in the assay on MDA-MB-231 breast; 2.96 µM in the assay on HCC-2998 colon; 2.52 µM in the assay with TK-10 renal. Also, the GI50 with HCT-116 colon was 1.69 µM; in the assay with OVCAR-4 ovarian, 2.58 µM; in the assay on HOP-62 NSCLC it was 1.52 µM; in the assay with OVCAR-8 ovarian it was 2.26 µM. Besides, the TGI in the assay on SK-MEL-2 melanoma is 7.97 µM; in the assay on MOLT-4 leukemia, 36.5 µM; with UACC-62 melanoma, 17.5 µM; in the assay with MDA-MB-231 breast, 12.8 µM; in the assay on HCC-2998 colon, 11.6 µM; in the assay with TK-10 renal it was 11.3 µM. For the same molecule, the TGI came out at 7.79 µM in the assay on HCT-116 colon, 15.4 µM in the assay on OVCAR-4 ovarian, 3.64 µM in the assay with HOP-62 NSCLC and 6.93 µM in the assay on OVCAR-8 ovarian.
